The results in this text go back to US12215116B2, “Arginase inhibitors and methods of use” (Merck Sharp & Dohme LLC, priority 2018, dated 2025).

pIC50: −log10 of the molar value. Where a name gives a salt, the structure may show the parent alone. Some results are limits rather than exact numbers.

The target in the experiment is T1, Arginase (ARG1 enzyme) (Homo sapiens, UniProt P05089).
T1 construct: made in house; host or cells: Escherichia coli
T1 sequence (P05089 1-322): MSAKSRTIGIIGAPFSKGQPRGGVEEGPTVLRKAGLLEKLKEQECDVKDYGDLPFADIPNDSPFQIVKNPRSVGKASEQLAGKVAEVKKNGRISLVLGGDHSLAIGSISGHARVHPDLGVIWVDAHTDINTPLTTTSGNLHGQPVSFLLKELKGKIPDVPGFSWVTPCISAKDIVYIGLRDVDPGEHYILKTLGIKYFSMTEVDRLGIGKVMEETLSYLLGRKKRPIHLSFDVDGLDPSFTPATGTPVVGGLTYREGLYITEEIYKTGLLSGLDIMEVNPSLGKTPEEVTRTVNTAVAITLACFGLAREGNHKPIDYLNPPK
The experiment is described as follows: Arginase Thioornithine Generating Assay (TOGA). Type of experiment: biochemical. The settings on record: 1.88 nM arginase, thioarginine substrate, fluorescence readout. As for the experimental part: Arginase Thioornithine Generating Assay (TOGA)
Compounds were serially diluted in ten 3-fold steps in DMSO starting from 10 mM DMSO stocks. Compound dilutions or DMSO alone were then dispensed from the dilution plate into a Greiner black 384-well assay plate (catalog #781086) using an Echo 555 acoustic liquid handler (Labcyte).
Arginase protein was recombinantly expressed in Escherichia coli. Purified protein was then diluted in assay buffer (50 mM Tris pH 7.5, 50 mM NaCl, 1 mM manganese chloride, 0.05% bovine serum albumin to obtain a final Arginase concentration of 1.88 nM. Arginase solution (20 μL) or buffer alone (20 μL) were dispensed to wells of the assay plate using a BioRAPTR liquid dispenser (Beckman Coulter). Assay plates containing compound and ARG1 enzyme were incubated at room temperature for 30 minutes. Afterwards, 5 μL of 2.5 mM thioarginine (Cayman Chemicals) in assay buffer were added to each well of the assay plate using a BioRAPTR liquid dispenser. Plates were incubated at room temperature for 60 minutes and reactions were quenched by addition of 15 μL of […] 7-Diethylamine-3-(4-maleimidophenyl)-4-methylcoumarin (Sigma Chemical) in 70% ethanol. Plates were briefly shaken to mix and the fluorescence was measured in an Spectramax plate reader (Molecular Devices) with a 410 nm excitation wavelength and an 490 nm emission wavelength.
Potencies were calculated by […] to the four parameter logistic IC50 equation.

`C[C@H](N)C(=O)N(C)[C@H]1CN[C@H](C(=O)O)[C@@H]1CCCB(O)O` [Example 51, (2S,3S,4R)-4-((S)-2-amino-N-methylpropanamido)-3-(3-boronopropyl)pyrrolidine-2-carboxylic acid] showed a pIC50 of 6.01.

In turn, `O=C(O)C1C(CCCB(O)O)CCN1CCN1CCCCC1` (stereo not drawn) [Example 10, 3-(3-boronopropyl)-1-(2-(piperidin-1-yl)ethyl)pyrrolidine-2-carboxylic acid] had a pIC50 of 4.89.

Compound `CC(C)[C@H](N)C(=O)N[C@H]1CN[C@H](C(=O)O)[C@@H]1CCCB(O)O` [Example 37, (2S,3R,4R)-4-((S)-2-amino-3-methylbutanamido)-3-(3-boronopropyl)pyrrolidine-2-carboxylic acid] had a pIC50 of 8.68. This pIC50 is 3.79 log units higher than that of the compound before.

For `O=C(O)[C@@H]1NCCC[C@@H]1CCCB(O)O` (single isomer, unassigned) [Example 1A], the pIC50 is 5.44.

`NC(=O)[C@@]1(CCCB(O)O)CCN[C@@H]1C(=O)O` [Example 89, (2S,3S)-3-(3-boronopropyl)-3-carbamoylpyrrolidine-2-carboxylic acid]: the pIC50 was 6.54.

Take `C[C@@]1(CCCB(O)O)CCN[C@@H]1C(=O)O` [Example 14, (3R)-3-[3-(dihydroxyboranyl)propyl]-3-methyl-L-proline]: the pIC50 was 7.80. Against the preceding compound, the pIC50 is 1.26 log units higher.

In turn, `CC(C)(O)[C@@]1(CCCB(O)O)CN[C@@H]1C(=O)O` [Example 68, (2S,3S)-3-(3-boronopropyl)-3-(2-hydroxypropan-2-yl)azetidine-2-carboxylic acid] showed a negative-log IC50 (pIC50) of 6.46.

With `O=C(O)[C@H]1NCC[C@H]1SCCB(O)O` [Example 93, (2R,3R)-3-((2-boronoethyl)thio)pyrrolidine-2-carboxylic acid hydrochloride], the pIC50 is 7.04. Against the preceding compound, the pIC50 is 0.58 log units higher.

Turning to `NC[C@]1(C(=O)O)NCC[C@H]1CCCB(O)O` (relative stereo) [Example 57A, 2-(aminomethyl)-3-(3-boronopropyl)pyrrolidine-2-carboxylic acid], the pIC50 was 6.95. This pIC50 and that of the compound before are within 0.2 log units of each other.

On to `C[C@@]1(CCCB(O)O)[C@H](O)CN[C@@H]1C(=O)O` [Example 69, (2S,3S,4S)-3-(3-boronopropyl)-4-hydroxy-3-methylpyrrolidine-2-carboxylic acid], for which the pIC50 is < 5.00.

As to `C[C@]1(C(=O)O)NCC[C@H]1CCCB(O)O` [Example 16A, (3R)-3-[3-(dihydroxyboranyl)propyl]-2-methyl-L-proline], the pIC50 is 7.15.

On to `CC1(C)[C@H]2C[C@@H]3OB(CCC[C@@H]4CCN[C@@H]4C(=O)O)O[C@]3(C)[C@@H]1C2` [Example 13, (3R)-3-{3-[(3aR,4R,6R,7aS)-3a,5,5-trimethylhexahydro-4,6-methano-1,3,2-benzodioxaborol-2-yl]propyl}-L-proline], for which the pIC50 was 7.52.

For `CN1C[C@@](CO)(CCCB(O)O)[C@H]1C(=O)O` [Example 66, (2S,3S)-3-(3-boronopropyl)-3-(hydroxymethyl)-1-methylazetidine-2-carboxylic acid], the pIC50 was 6.57. Against the preceding compound, the pIC50 is 0.95 log units lower.

Compound `C[C@]1(CCCB(O)O)[C@@H](C(=O)O)NC[C@@H]1N` [Example 71, (2S,3R,4R)-4-amino-3-(3-boronopropyl)-3-methylpyrrolidine-2-carboxylic acid] had a pIC50 of 7.77.

Take `CC1CC(CCCB(O)O)[C@@H](C(=O)O)N1` (stereo partly drawn) [Example 17, 3-[3-(dihydroxyboranyl)propyl]-5-methylproline]: the pIC50 was < 5.00.

`C[C@H]1N[C@H](C(=O)O)[C@](C)(CCCB(O)O)[C@H]1O` [Example 74A, (2S,3S,4R,5R)-3-(3-boronopropyl)-4-hydroxy-3,5-dimethylpyrrolidine-2-carboxylic acid]: the pIC50 is 7.31.

Turning to `O=C(O)[C@@]1(CO)NCC[C@H]1CCCB(O)O` [Example 59A, (2R,3R)-3-(3-boronopropyl)-2-(hydroxymethyl)pyrrolidine-2-carboxylic acid], the pIC50 was 6.51.

The compound `CNC[C@H]1CN[C@H](C(=O)O)[C@]1(C)CCCB(O)O` [Example 79] gave a negative-log IC50 (pIC50) of 7.18. This pIC50 is 0.67 log units higher than that of the compound before.

As for `N#C[C@@]1(CCCB(O)O)CCN[C@@H]1C(=O)O` [Example 88, (2S,3S)-3-(3-boronopropyl)-3-cyanopyrrolidine-2-carboxylic acid], the negative logarithm of the IC50 (pIC50) is 7.87. This pIC50 lies 0.69 log units higher than the previous one.

With `O=C(O)C1(CCN2CCCCC2)NCCC1CCCB(O)O` (stereo not drawn) [Example 11, 3-(3-boronopropyl)-2-(2-(piperidin-1-yl)ethyl)pyrrolidine-2-carboxylic acid], the pIC50 is 7.08.

The compound `CN[C@H](C(=O)N[C@H]1CN[C@H](C(=O)O)[C@@H]1CCCB(O)O)C(C)C` [Example 43, (2S,3R,4R)-3-(3-boronopropyl)-4-((S)-3-methyl-2-(methylamino)butanamido)pyrrolidine-2-carboxylic acid] had a negative-log IC50 (pIC50) of 8.53.

Consider `C[C@@]1(CCCB(O)O)[C@@H](CO)CN[C@@H]1C(=O)O` [Example 80, (2S,3R,4R)-3-(3-boronopropyl)-4-(hydroxymethyl)-3-methylpyrrolidine-2-carboxylic acid], for which the pIC50 was 7.56. Against the preceding compound, the pIC50 is 0.97 log units lower.

In turn, `C[C@@]1(C(=O)O)NCC[C@H]1CCCB(O)O` [Example 16C, (3R)-3-[3-(dihydroxyboranyl)propyl]-2-methyl-D-proline] showed a pIC50 of 5.84.

Turning to `CC(C)(O)[C@H](N)C(=O)N[C@H]1CN[C@H](C(=O)O)[C@@H]1CCCB(O)O` [Example 39, (2S,3R,4R)-4-((S)-2-amino-3-hydroxy-3-methylbutanamido)-3-(3-boronopropyl)pyrrolidine-2-carboxylic acid], the pIC50 was 7.99.

`CC1(C)[C@H]2C[C@@H]3OB(CCC[C@]4(C)CCN[C@@H]4C(=O)O)O[C@]3(C)[C@@H]1C2` [Example 22, (2S,3R)-3-methyl-3-(3-((3aR,4R,6R,7aS)-3a,5,5-trimethylhexahydro-4,6-methanobenzo[d][1,3,2]dioxaborol-2-yl)propyl)pyrrolidine-2-carboxylic acid] showed a pIC50 of 6.82.

For `O=C(O)C1CNCC1CCCB(O)O` (single isomer, unassigned) [Example 21C, 4-[3-(dihydroxyboranyl)propyl]pyrrolidine-3-carboxylic acid], the negative-log IC50 (pIC50) was < 5.00.

Regarding `O=C(O)[C@H]1NC[C@@H](O)[C@]1(F)CCCB(O)O` [Example 92C, (2R,3S,4R)-3-(3-boronopropyl)-3-fluoro-4-hydroxypyrrolidine-2-carboxylic acid], the pIC50 is < 5.00.

With `NC1(C(=O)O)CNCC1(CO)CCCB(O)O` (single isomer, unassigned) [Example 94B], the pIC50 is 6.03.

`O=C(O)[C@H]1NC[C@@H]1CCCB(O)O` [Example 8A, (2S,3S)-3-[3-(dihydroxyboranyl)propyl]azetidine-2-carboxylic acid] gave a pIC50 of 6.47.

Take `O=C(O)[C@]1(CO)NCC[C@H]1CCCB(O)O` (single isomer, unassigned) [Example 59B]: the pIC50 was 6.88.

`CN(C)C[C@H]1CN[C@H](C(=O)O)[C@]1(C)CCCB(O)O` [Example 78, (2S,3R,4R)-3-(3-boronopropyl)-4-((dimethylamino)methyl)-3-methylpyrrolidine-2-carboxylic acid]: the pIC50 was < 5.00.

Take `O=C(O)[C@H]1NCC[C@]1(CCCB(O)O)C(F)F` [Example 84, (2S,3S)-3-(3-boronopropyl)-3-(difluoromethyl)pyrrolidine-2-carboxylic acid]: the pIC50 is 7.54.

On to `N[C@]1(C(=O)O)CNC[C@]1(CO)CCCB(O)O` [Example 94D], for which the pIC50 is < 5.00.

`O=C(O)C1CC(CCB(O)O)CCN1` (stereo not drawn) [Example 4, 4-[2-(dihydroxyboranyl)ethyl]piperidinyl-2-carboxylic acid] showed a pIC50 of 4.70.

As to `CNC[C@@]1(CCCB(O)O)CCN[C@@H]1C(=O)O` [Example 87, (2S,3R)-3-(3-boronopropyl)-3-((methylamino)methyl)pyrrolidine-2-carboxylic acid], the pIC50 is 8.15.

For the compound `CN(C)CC[C@]1(C(=O)O)NCC[C@H]1CCCB(O)O` [Example 54, (2S,3R)-3-(3-boronopropyl)-2-(2-(dimethylamino)ethyl)pyrrolidine-2-carboxylic acid], the pIC50 is 7.50.

In the case of `O=C(O)C[C@@]1(CCCB(O)O)[C@H](O)CN[C@@H]1C(=O)O` [Example 90, (2S,3R,4S)-3-(3-boronopropyl)-3-(carboxymethyl)-4-hydroxypyrrolidine-2-carboxylic acid], the pIC50 was 5.54.

In turn, `O=C(O)C1CNCC1CCCB(O)O` (single isomer, unassigned) [Example 21B, 4-[3-(dihydroxyboranyl)propyl]pyrrolidine-3-carboxylic acid] showed a pIC50 of 6.22.

As for `CC(=O)N[C@H]1CN[C@H](C(=O)O)[C@@H]1CCCB(O)O` [Example 50, (2S,3R,4R)-4-acetamido-3-(3-boronopropyl)pyrrolidine-2-carboxylic acid], the pIC50 was 6.61. Compared with the last compound, the pIC50 is 0.39 log units higher.
